Assay results from patent US10947242B2, “[1,2,4]triazolo[1,5and#8208;A]pyrimidine compounds as PDE2 inhibitors” (Janssen Pharmaceutica NV, priority 2016, dated 2021).

Target: T1, PDE2A (Rattus norvegicus, UniProt Q01062)
T1 construct: Twenty μm-thick striatal sections were cut; from tissue; host or cells: rat brain, striatal sections
T1 sequence (Q01062 1-928): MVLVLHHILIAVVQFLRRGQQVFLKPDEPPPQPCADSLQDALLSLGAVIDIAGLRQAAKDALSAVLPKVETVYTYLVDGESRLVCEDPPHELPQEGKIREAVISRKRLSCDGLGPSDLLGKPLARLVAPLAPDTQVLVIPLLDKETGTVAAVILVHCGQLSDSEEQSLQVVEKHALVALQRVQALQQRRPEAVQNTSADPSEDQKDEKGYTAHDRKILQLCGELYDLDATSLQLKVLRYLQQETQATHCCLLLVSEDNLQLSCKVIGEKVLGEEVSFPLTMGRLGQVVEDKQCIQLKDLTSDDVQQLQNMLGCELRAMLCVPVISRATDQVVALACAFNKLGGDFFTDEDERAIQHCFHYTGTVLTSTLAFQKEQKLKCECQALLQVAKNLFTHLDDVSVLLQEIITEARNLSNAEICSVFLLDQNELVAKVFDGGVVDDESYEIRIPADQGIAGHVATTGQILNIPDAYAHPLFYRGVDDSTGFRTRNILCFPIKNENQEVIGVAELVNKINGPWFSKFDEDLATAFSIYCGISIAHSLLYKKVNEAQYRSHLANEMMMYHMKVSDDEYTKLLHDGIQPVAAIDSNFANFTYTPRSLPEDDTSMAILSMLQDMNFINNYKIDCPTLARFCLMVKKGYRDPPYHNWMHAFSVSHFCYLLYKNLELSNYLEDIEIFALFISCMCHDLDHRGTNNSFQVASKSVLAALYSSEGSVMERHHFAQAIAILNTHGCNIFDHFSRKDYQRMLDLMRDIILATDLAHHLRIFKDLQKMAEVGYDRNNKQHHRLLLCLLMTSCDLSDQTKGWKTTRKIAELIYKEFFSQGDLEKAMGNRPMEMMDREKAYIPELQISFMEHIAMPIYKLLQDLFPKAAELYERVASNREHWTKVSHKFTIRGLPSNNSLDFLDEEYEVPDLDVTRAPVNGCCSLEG
Experiment: PDE2 occupancy by test compounds, ex-vivo autoradiography with [3H]B-17a
Type: in vivo, Male Wistar rats
Settings: sc, 10 mg/kg, route SC (subcutaneous), percentage receptor occupancy, ex-vivo autoradiography, striatum

receptor occupancy at 10 mg/kg: 88%
SMILES: C[C@@H]1CCN(C(=O)c2ccc3c(ccn3CCF)c2)C[C@H]1c1cc(C(F)F)nc2ncnn12 [Compound 89]
